Experimental data published in BindingDB's records for doi:10.1016/j.bmcl.2011.11.008 (Korea Research Institute of Bioscience and Biotechnology, 2011).

What was measured:
[1] = Inhibition of PRL-3-mediated cell invasion in human DLD1 cells after 20 hrs using crystal violet staining by Matrigel invasion assay
[2] = Inhibition of PRL-3-mediated cell migration in human DLD1 cells after 15 hrs by crystal violet staining based microscopic assay

Cc1cc(O)c2c(c1)C(=O)c1cc(O)cc(O)c1C2=O [1,3,8-trihydroxy-6-methylanthra-9,10-quinone]
IC50 [1]: 35 µM
IC50 [2]: 28 µM
